Here are results for 25 compounds from US9796719B2, “Compounds and pharmaceutical compositions thereof for the treatment of inflammatory disorders” (GALAPAGOS NV, priority 2013, dated 2017).

The structures appear in SMILES notation. pIC50: −log10 of the molar value. A value given as a limit tells only on which side of the number the result lay.

Usually pIC50 stands for the negative decadic logarithm of the IC50, by convention in mol/L. A high value points to a small IC50.

Assay [1] addresses T1, hENPP2 (UniProtKB/SwissProt Sequence ref Q13822) (Homo sapiens (Human), UniProt Q13822). Kind of assay: LPC hENPP2 assay (choline release, LPC as substrate). In kind it is biochemical. A digest of the protocol: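 Detection is coupled: choline oxidase produces peroxide, which HRP uses to form quinoneimine dye from TOOS and 4-aminoantipyrine, read at 555 nm. The reaction is stopped with 20 mM EGTA in the developer mix, then incubated 30 min at room temperature; inhibition lowers signal.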

For assay [2], the target named is T1, hENPP2. Kind of assay: FS3 hENPP2 assay (fluorogenic substrate FS-3). In kind it is biochemical. The note with it: hENPP2, FS-3 as substrate. A digest of the protocol: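 Compound dilutions (1/5 steps, top concentration as added 20 μM) were preincubated 30 min at room temperature with hENPP2 (0.4 or 0.64 μg/mL final) in pH 8.0 Tris buffer containing NaCl, KCl, MgCl2, CaCl2 and 0.1% fatty-acid-free BSA. FS-3 (0.75 μM as added) was then hydrolysed for 30 min at 30 °C, and fluorescence was read at 485/520 nm.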

In the case of `CCc1nc2ccc(N3CCN(CC(=O)N4CC(O)C4)CC3)nn2c1N(C)c1nc(-c2ccc(F)cc2)c(C#N)s1` [Cpd 27, 2-((2-ethyl-6-(4-(2-(3-hydroxyazetidin-1-yl)-2-oxoethyl)piperazin-1-yl)imidazo[1,2-b]pyridazin-3-yl)(methyl)amino)-4-(4-fluorophenyl) thiazole-5-carbonitrile], the negative-log IC50 (pIC50) in assay [1] was 7.00 to 11.00; in assay [2], 7.60 to 11.00.
Turning to `CCc1nc2ccc(N3CCN(CCC#N)CC3)nn2c1N(C)c1nc(-c2ccc(F)cc2)cs1` [Cpd 51], the pIC50 is below 6.00 in assay [1] and 7.60 to 11.00 in assay [2].
In the case of `CCc1nc2ccc(N3CCN(CCNC(C)=O)CC3)nn2c1N(C)c1nc(-c2ccc(F)cc2)cs1` [Cpd 57, N-(2-(4-(2-ethyl-3-((4-(4-fluorophenyl)thiazol-2-yl)(methyl)amino)imidazo[1,2-b]pyridazin-6-yl)piperazin-1-yl)ethyl)acetamide], the pIC50 in assay [1] is 6.30 to 7.00; in assay [2] it was 7.60 to 11.00.
For `CCc1nc2ccc(N3CCC(NC(=O)OC(C)(C)C)CC3)nn2c1N(C)c1nc(-c2ccc(F)cc2)cs1` [Cpd 81, tert-butyl 1-(2-ethyl-3-((4-(4-fluorophenyl)thiazol-2-yl)(methyl)amino)imidazo[1,2-b]pyridazin-6-yl)piperidin-4-ylcarbamate], the pIC50 was below 6.00 in assay [1] and 7.60 to 11.00 in assay [2].
Taken in the same sequence, the figures for `CCc1nc2ccc(N3CCC(CO)CC3)nn2c1N(C)c1nc(-c2ccc(F)cc2)cs1` [Cpd 93, (1-(2-ethyl-3-((4-(4-fluorophenyl)thiazol-2-yl)(methyl)amino)imidazo[1,2-b]pyridazin-6-yl)piperidin-4-yl)methanol] were below 6.00 and 7.60 to 11.00.
With `CCc1nc2ccc(C3CCN(CC(=O)N(C)C)CC3)nn2c1N(C)c1nc(-c2ccc(F)cc2)cs1` [Cpd 202, 2-(4-(2-ethyl-3-((4-(4-fluorophenyl)thiazol-2-yl)(methyl)amino)imidazo[1,2-b]pyridazin-6-yl)piperidin-1-yl)-N,N-dimethylacetamide], the figures for the pIC50 in assay [1] and in assay [2] were 6.00 to 6.30 and 7.60 to 11.00, respectively.
Regarding `CCc1nc2ccc(N3CC4CN(S(C)(=O)=O)CC4C3)nn2c1N(C)c1nc(-c2ccc(F)cc2)cs1` (centres unmarked) [Compound 123, N-(2-ethyl-6-(5-(methylsulfonyl)hexahydropyrrolo[3,4-c]pyrrol-2(1H)-yl)imidazo[1,2-b]pyridazin-3-yl)-4-(4-fluorophenyl)-N-methylthiazol-2-amine], the pIC50 in assay [1] was below 6.00; in assay [2] it was 7.60 to 11.00.
Taken in the same sequence, the figures for `CCc1nc2ccc(C3CCN(CC(=O)N4CC(O)C4)CC3)nn2c1N(C)c1nc(-c2ccc(F)cc2)ccc1C#N` [Cpd 217, 2-((2-ethyl-6-(1-(2-(3-hydroxyazetidin-1-yl)-2-oxoethyl)piperidin-4-yl)imidazo[1,2-b]pyridazin-3-yl)(methyl)amino)-6-(4-fluorophenyl) nicotinonitrile] were below 6.00 and 7.00 to 7.30.
Taken in the same sequence, the figures for `CCc1nc2ccc(N3CCS(=O)(=O)CC3)nn2c1N(C)c1nc(-c2ccc(F)cc2)cs1` [Compound 79, [6-(1,1-Dioxothiomorpholin-4-yl)-2-ethyl-imidazo[1,2-b]pyridazin-3-yl]-[4-(4-fluoro-phenyl)-thiazol-2-yl]-methyl-amine] were below 6.00 and 7.30 to 7.60.
On to `CCc1nc2ccc(N3CCC(CC(=O)N(C)C)CC3)nn2c1N(C)c1nc(-c2ccc(F)cc2)cs1` [Cpd 108, 2-(1-(2-ethyl-3-((4-(4-fluorophenyl)thiazol-2-yl)(methyl)amino)imidazo[1,2-b]pyridazin-6-yl)piperidin-4-yl)-N,N-dimethylacetamide], for which the values for the pIC50 in assay [1] and in assay [2] were 6.00 to 6.30 and 7.60 to 11.00, respectively.
Taken in the same sequence, the figures for `CN(c1nc(-c2ccc(F)cc2)c(C(=O)C(F)(F)F)s1)c1c(CCC#N)nc2ccc(C3CCN(S(C)(=O)=O)CC3)nn12` [Compound 199, 3-(3-((4-(4-fluorophenyl)-5-(2,2,2-trifluoroacetoyl)thiazol-2-yl)(methyl)amino)-6-(1-(methylsulfonyl)piperidin-4-yl)imidazo[1,2-b]pyridazin-2-yl)propanenitrile] were below 6.00 and 7.60 to 11.00.
Taken in the same sequence, the figures for `CCc1nc2ccc(N3CCC(N4CCCCC4)C3)nn2c1N(C)c1nc(-c2ccc(F)cc2)cs1` (centres unmarked) [Cpd 151, N-(2-ethyl-6-(3-(piperidin-1-yl)pyrrolidin-1-yl)imidazo[1,2-b]pyridazin-3-yl)-4-(4-fluorophenyl)-N-methylthiazol-2-amine] were below 6.00 and 7.60 to 11.00.
As for `CCc1nc2ccc(N3CCC(O)C3)nn2c1N(C)c1nc(-c2ccc(F)cc2)cs1` (centres unmarked) [Cpd 129, 1-(2-ethyl-3-((4-(4-fluorophenyl)thiazol-2-yl)(methyl)amino)imidazo[1,2-b]pyridazin-6-yl)pyrrolidin-3-ol], the pIC50 was below 6.00 in assay [1] and 7.60 to 11.00 in assay [2].
`CCc1nc2ccc(N3CCN(CC(=O)N(C)C)CC3)nn2c1N(C)c1nc(-c2ccc(F)cc2)c(C(=O)C(F)(F)F)s1` [Cpd 45, 2-(4-(2-ethyl-3-((4-(4-fluorophenyl)-5-(2,2,2-trifluoroacetoyl)thiazol-2-yl)(methyl)amino)imidazo[1,2-b]pyridazin-6-yl)piperazin-1-yl)-N,N-dimethylacetamide]: the negative logarithm of the IC50 (pIC50) was 7.00 to 11.00 in assay [1] and 7.60 to 11.00 in assay [2].
Take `CCc1nc2ccc(N3CCC(N)CC3)nn2c1N(C)c1nc(-c2ccc(F)cc2)cs1` [Cpd 82, N-(6-(4-aminopiperidin-1-yl)-2-ethylimidazo[1,2-b]pyridazin-3-yl)-4-(4-fluorophenyl)-N-methylthiazol-2-amine]: the negative-log IC50 (pIC50) in assay [1] was below 6.00; in assay [2], 7.60 to 11.00.
Regarding `CCc1nc2ccc(C3CCN(CC(=O)N4CC(O)C4)CC3)nn2c1N(C)c1nc(-c2ccc(F)cc2)c(C#N)s1` [Cpd 212, 2-((2-ethyl-6-(1-(2-(3-hydroxyazetidin-1-yl)-2-oxoethyl)piperidin-4-yl)imidazo[1,2-b]pyridazin-3-yl)(methyl)amino)-4-(4-fluorophenyl) thiazole-5-carbonitrile], the pIC50 in assay [1] was 7.00 to 11.00; in assay [2], 7.60 to 11.00.
For the compound `CCc1nc2ccc(N3CCN(CCCO)CC3)nn2c1N(C)c1nc(-c2ccc(F)cc2)cs1` [Cpd 49, 3-(4-(2-ethyl-3-((4-(4-fluorophenyl)thiazol-2-yl)(methyl)amino)imidazo[1,2-b]pyridazin-6-yl)piperazin-1-yl)propan-1-ol], the results for the pIC50 in assay [1] and in assay [2] were 6.00 to 6.30 and 7.60 to 11.00, respectively.
For the compound `CCc1nc2ccc(N3CCCC(CNS(C)(=O)=O)C3)nn2c1N(C)c1nc(-c2ccc(F)cc2)cs1` (centres unmarked) [Cpd 102, N-((1-(2-ethyl-3-((4-(4-fluorophenyl)thiazol-2-yl)(methyl)amino)imidazo[1,2-b]pyridazin-6-yl)piperidin-3-yl)methyl) methanesulfonamide], the pIC50 in assay [1] is below 6.00; in assay [2], 7.60 to 11.00.
In the same order, the values of `CCc1nc2ccc(N3CCCN(C(C)=O)CC3)nn2c1N(C)c1nc(-c2ccc(F)cc2)cs1` [Cpd 115, 1-(4-(2-ethyl-3-((4-(4-fluorophenyl)thiazol-2-yl)(methyl)amino)imidazo[1,2-b]pyridazin-6-yl)-1,4-diazepan-1-yl)ethanone] are below 6.00 and 7.60 to 11.00.
Turning to `CCc1nc2ccc(C3CCN(CC(=O)N4CC(O)C4)CC3)nn2c1N(C)c1cccc(-c2ccc(F)cc2)n1` [Cpd 214, 2-(4-(2-ethyl-3-((6-(4-fluorophenyl)pyridin-2-yl)(methyl)amino)imidazo[1,2-b]pyridazin-6-yl)piperidin-1-yl)-1-(3-hydroxyazetidin-1-yl)ethanone], the pIC50 is 6.00 to 6.30 in assay [1] and 7.60 to 11.00 in assay [2].
For `CCc1nc2ccc(N3CCN(CC(=O)N(C)C)CC3)nn2c1N(C)c1nc(-c2ccc(F)cc2)c(CO)s1` [Cpd 43, 2-(4-(2-ethyl-3-((4-(4-fluorophenyl)-5-(hydroxymethyl)thiazol-2-yl)(methyl)amino)imidazo[1,2-b]pyridazin-6-yl)piperazin-1-yl)-N,N-dimethylacetamide], the figures for the pIC50 in assay [1] and in assay [2] were 6.30 to 7.00 and 7.60 to 11.00, respectively.
In the same order, the values of `CCc1nc2ccc(C3=CCN(S(C)(=O)=O)CC3)nn2c1N(C)c1nc(-c2ccc(F)cc2)cs1` [Cpd 194, N-(2-ethyl-6-(1-(methylsulfonyl)-1,2,3,6-tetrahydropyridin-4-yl)imidazo[1,2-b]pyridazin-3-yl)-4-(4-fluorophenyl)-N-methylthiazol-2-amine] are below 6.00 and 7.60 to 11.00.
As for `CCc1nc2ccc(N3CC4CN(C(C)=O)CC4C3)nn2c1N(C)c1nc(-c2ccc(F)cc2)cs1` (centres unmarked) [Compound 124, 1-(5-(2-ethyl-3-((4-(4-fluorophenyl)thiazol-2-yl)(methyl)amino)imidazo[1,2-b]pyridazin-6-yl)hexahydropyrrolo[3,4-c]pyrrol-2(1H)-yl)ethanone], the pIC50 is below 6.00 in assay [1] and 7.60 to 11.00 in assay [2].
As for `CN(c1nc(-c2ccc(F)cc2)cs1)c1c(CCC(N)=O)nc2ccc(C3CCN(S(C)(=O)=O)CC3)nn12` [Compound 197, 3-(3-((4-(4-fluorophenyl)thiazol-2-yl)(methyl)amino)-6-(1-(methylsulfonyl)piperidin-4-yl)imidazo[1,2-b]pyridazin-2-yl)propanamide], the pIC50 is 6.00 to 6.30 in assay [1] and 7.60 to 11.00 in assay [2].
For the compound `CCc1nc2ccc(N3CCN(CCOC)CC3)nn2c1N(C)c1nc(-c2ccc(F)cc2)cs1` [Cpd 53, N-(2-ethyl-6-(4-(2-methoxyethyl)piperazin-1-yl)imidazo[1,2-b]pyridazin-3-yl)-4-(4-fluorophenyl)-N-methylthiazol-2-amine], the negative logarithm of the IC50 (pIC50) was below 6.00 in assay [1] and 7.60 to 11.00 in assay [2].
